In ChEMBL document CHEMBL1821660, “Synthesis and biological activity of a novel class nicotinic acetylcholine receptors (nAChRs) ligands structurally related to anatoxin-a” (Bioorg Med Chem Lett, 2011):

Tests used:
[1] = biological target: Neuronal acetylcholine receptor; alpha3/beta4 (Homo sapiens, UniProt P30926+P32297); assay: Displacement of [3H]-epibatidine from alpha3beta4 nAChR expressed in human IMR32 cells after 2 hrs by scintillation counting; format: cell-based, IMR-32
[2] = Displacement of [3H]-cytisine from nAChR in rat brain membranes; format: cell membranes
[3] = biological target: Neuronal acetylcholine receptor subunit alpha-7 (Homo sapiens, UniProt P36544); assay: Displacement of [125I]-alpha-bungarotoxin from alpha7 nAchR expressed in rat GH4C1 cells; format: cell-based, GH4-C1
[4] = biological target: Acetylcholine receptor subunit alpha (Homo sapiens, UniProt P02708); assay: Binding affinity to alpha1 nAchR expressed in human TE671 cells; format: cell-based, TE-671
Chain of Acetylcholine receptor subunit alpha (P02708 whole entry): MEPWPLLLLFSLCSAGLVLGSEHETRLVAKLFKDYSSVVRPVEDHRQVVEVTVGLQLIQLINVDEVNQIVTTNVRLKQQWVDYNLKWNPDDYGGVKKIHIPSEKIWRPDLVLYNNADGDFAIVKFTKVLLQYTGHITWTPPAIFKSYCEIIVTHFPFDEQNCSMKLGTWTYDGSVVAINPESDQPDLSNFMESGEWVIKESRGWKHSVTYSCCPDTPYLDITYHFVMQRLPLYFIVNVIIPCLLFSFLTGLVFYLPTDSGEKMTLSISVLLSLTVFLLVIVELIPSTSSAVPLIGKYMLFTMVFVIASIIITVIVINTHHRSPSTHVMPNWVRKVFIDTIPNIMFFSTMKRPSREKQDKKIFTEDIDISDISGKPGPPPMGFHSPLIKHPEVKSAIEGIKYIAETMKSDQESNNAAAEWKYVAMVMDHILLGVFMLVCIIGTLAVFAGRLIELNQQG

Chain of Neuronal acetylcholine receptor subunit alpha-7 (P36544 whole entry): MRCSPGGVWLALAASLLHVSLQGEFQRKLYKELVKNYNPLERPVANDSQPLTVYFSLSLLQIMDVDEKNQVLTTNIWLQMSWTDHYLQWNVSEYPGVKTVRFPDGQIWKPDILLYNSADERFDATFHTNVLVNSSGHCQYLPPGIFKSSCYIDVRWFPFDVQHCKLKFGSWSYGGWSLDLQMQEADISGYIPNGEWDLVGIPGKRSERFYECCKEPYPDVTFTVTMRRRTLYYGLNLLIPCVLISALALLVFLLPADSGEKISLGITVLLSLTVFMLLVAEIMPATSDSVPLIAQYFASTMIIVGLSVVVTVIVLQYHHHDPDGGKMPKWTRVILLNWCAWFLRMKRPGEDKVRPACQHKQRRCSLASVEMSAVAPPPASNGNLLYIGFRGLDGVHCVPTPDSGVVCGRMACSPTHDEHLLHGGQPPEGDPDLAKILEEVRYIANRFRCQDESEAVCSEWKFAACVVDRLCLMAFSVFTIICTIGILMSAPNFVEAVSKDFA
Chain of Neuronal acetylcholine receptor; alpha3/beta4 (P30926 whole entry): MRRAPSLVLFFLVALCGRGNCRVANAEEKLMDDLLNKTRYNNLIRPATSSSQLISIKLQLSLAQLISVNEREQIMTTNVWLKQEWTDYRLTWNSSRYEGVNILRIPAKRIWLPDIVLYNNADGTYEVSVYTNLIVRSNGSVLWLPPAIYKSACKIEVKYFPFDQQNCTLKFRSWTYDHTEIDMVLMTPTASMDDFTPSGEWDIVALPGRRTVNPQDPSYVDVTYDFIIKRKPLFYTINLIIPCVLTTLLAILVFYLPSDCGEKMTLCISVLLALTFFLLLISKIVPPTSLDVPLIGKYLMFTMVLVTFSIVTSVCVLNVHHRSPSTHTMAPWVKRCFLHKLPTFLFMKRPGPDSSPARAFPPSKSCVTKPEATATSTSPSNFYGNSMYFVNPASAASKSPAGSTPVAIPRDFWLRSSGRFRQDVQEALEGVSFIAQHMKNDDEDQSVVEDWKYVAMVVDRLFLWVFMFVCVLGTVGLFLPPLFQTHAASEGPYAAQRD
Chain of Neuronal acetylcholine receptor; alpha3/beta4 (P32297 whole entry): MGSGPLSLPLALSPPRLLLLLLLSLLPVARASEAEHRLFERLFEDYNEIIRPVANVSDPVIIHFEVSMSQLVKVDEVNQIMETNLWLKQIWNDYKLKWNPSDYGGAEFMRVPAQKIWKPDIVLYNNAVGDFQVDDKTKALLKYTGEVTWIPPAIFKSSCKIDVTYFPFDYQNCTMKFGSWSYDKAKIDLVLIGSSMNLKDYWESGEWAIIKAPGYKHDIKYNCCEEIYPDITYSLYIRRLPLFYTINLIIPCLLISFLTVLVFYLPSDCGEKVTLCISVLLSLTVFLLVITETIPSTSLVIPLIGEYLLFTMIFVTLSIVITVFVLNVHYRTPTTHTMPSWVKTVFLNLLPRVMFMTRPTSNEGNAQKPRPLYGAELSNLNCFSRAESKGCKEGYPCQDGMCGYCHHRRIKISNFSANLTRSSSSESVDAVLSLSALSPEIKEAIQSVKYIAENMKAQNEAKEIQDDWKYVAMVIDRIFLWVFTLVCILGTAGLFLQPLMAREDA

## Cc1cc([C@]2(O)CCC[C@@H]3CC[C@H]2N3)on1 (racemic)
[1]
  IC50: > 10 µM
[2]
  IC50: > 10 µM
[3]
  IC50: > 10 µM
[4]
  IC50: > 10 µM

## Cc1cc(C2=CCC[C@@H]3CC[C@H]2N3)on1 (racemic)
[1]
  IC50: > 10 µM
[2]
  IC50: 0.0091 µM
[3]
  IC50: > 10 µM

## CCc1cc(C2=CCC[C@@H]3CC[C@H]2N3)on1 (racemic)
[1]
  IC50: 1.8 µM
[2]
  IC50: 0.0122 µM
[3]
  IC50: 4.6 µM
[4]
  IC50: 4.2 µM

## CCOC(=O)c1noc2c1[C@H]1CC[C@@H](CC2)N1 (racemic)
[1]
  IC50: > 10 µM
[2]
  IC50: > 10 µM
[3]
  IC50: > 10 µM
[4]
  IC50: > 10 µM

## Cc1cc([C@@]2(O)CCC[C@@H]3CC[C@H]2N3)on1 (racemic)
[1]
  IC50: > 10 µM
[2]
  IC50: > 10 µM
[3]
  IC50: > 10 µM
[4]
  IC50: > 10 µM

## Cc1noc2c1[C@H]1CC[C@@H](CC2)N1 (racemic)
[1]
  IC50: > 10 µM
[2]
  IC50: > 10 µM
[3]
  IC50: > 10 µM
[4]
  IC50: > 10 µM

## C1=C(c2cc(-c3ccccc3)no2)[C@H]2CC[C@@H](CC1)N2 (racemic)
[1]
  IC50: 1.05 µM
[2]
  IC50: > 10 µM
[3]
  IC50: > 10 µM
[4]
  IC50: 7.8 µM

## CN1CCC[C@H]1c1cccnc1 [NICOTINE]
[2]
  IC50: 0.0047 µM

## CCOC(=O)c1cc(C2=CCC[C@@H]3CC[C@H]2N3)on1 (racemic)
[1]
  IC50: > 10 µM
[2]
  IC50: > 10 µM
[3]
  IC50: > 10 µM
[4]
  IC50: > 10 µM

## CC(C)c1cc(C2=CCC[C@@H]3CC[C@H]2N3)on1 (racemic)
[1]
  IC50: 2.9 µM
[2]
  IC50: 2.1 µM
[3]
  IC50: 15.1 µM
[4]
  IC50: 5.5 µM
